# From patent US11358969B2, “Indole AHR inhibitors and uses thereof” (Ikena Oncology, Inc., priority 2017, dated 2022)
# Biological target: T1, AHR (UniProt P35869)
# T1 construct: IC50
# T1 sequence (P35869 1-848): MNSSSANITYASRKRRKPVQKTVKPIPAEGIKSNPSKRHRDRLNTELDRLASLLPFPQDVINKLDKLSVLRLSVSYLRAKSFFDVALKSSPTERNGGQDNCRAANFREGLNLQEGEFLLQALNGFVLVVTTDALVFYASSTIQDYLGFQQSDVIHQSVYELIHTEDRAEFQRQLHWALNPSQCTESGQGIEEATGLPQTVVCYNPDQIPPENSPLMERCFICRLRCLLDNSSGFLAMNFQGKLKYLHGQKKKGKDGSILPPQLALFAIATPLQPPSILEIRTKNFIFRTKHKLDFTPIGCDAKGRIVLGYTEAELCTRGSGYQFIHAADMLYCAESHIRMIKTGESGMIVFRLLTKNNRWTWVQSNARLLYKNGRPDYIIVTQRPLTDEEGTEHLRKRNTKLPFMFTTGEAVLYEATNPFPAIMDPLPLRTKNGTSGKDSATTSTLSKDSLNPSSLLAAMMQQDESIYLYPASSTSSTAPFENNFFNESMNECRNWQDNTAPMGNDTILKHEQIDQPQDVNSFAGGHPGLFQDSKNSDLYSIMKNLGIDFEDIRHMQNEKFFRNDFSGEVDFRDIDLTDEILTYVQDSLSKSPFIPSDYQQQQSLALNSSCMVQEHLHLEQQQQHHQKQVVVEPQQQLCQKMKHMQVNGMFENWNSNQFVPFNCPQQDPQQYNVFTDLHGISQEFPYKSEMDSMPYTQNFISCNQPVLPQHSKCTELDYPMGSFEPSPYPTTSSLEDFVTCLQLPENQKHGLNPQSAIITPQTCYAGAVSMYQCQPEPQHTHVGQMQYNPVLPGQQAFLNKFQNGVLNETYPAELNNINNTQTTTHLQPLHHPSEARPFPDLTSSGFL
# Assay: DRE-Luciferase Reporter Assay (Alternate Method) (Example 1B)
# Format: cell-based, murine or human
# Details: cell line and AHR activating ligand not specified
# Experimental: AHR binds to Dioxin Responsive Elements (DRE) upstream of genes that it activates. One measure of AHR activity is activation of a reporter gene, such as luciferase, downstream of one or multiple DRE elements. Luciferase activity will reflect activation and inhibition of AHR in the cells expressing his reporter.
# Murine Hepa1-6 or Hepa-1c1c7 or other murine cell line with a DRE-luciferase reporter either stably or transiently transfected were plated in media in plates (96-well, 384-well or other plates) and incubated overnight at 37° C. in a CO2 incubator or compound and agonist were added at the time of plating. Likewise, human HepG2 or other human cell line with a DRE-luciferase reporter either stably or transiently transfected were plated in media in plates (96-well, 384-well or other plates) and incubated overnight at 37° C. in a CO2 incubator or compound and agonist were added at the time of plating.
# At the time that cells are plated or following incubation overnight, an AHR activating ligand, such as TCDD, kynurenine, ITE (2-(1H-indole-3-ylcarbonyl)-4-thiazolecarboxylic methyl ester), VAF347, BNF (beta-naphthoflavone), FICZ (6-formylindolo(3,2-b) carbazole or other AHR ligands, was added with or without AHR antagonist.
# Cells were incubated for 4, 15 or 24 hours or another time point and then lysed for determination of luciferase activity as a read-out of the AHR activation or inhibition. Luciferase was measured with a commercial kit such as the Promega Luciferase kit or any kit or reagents that provide the luciferin substrate for measuring luciferase activity. The level of luciferase with only activating ligand added was the maximum signal while the luciferase with no ligand was the minimum signal. IC50 values were determined as the concentration which inhibits half of the luciferase activity.
row,Compound,IC50 [nM]
1,"Fc1cncc(-c2nc(N[C@@H]3CCc4[nH]c5ccccc5c4C3)n3ncc(-c4ccn[nH]4)c3n2)c1 [I-253, (3R)—N-[2-(5-Fluoro-3-pyridyl)-8-(1H-pyrazol-5-yl)pyrazolo[1,5-a][1,3,5]triazin-4-yl]-2,3,4,9-tetrahydro-1H-carbazol-3-amine]",< 500
2,"CC(C)c1cnn2c(NCCc3c[nH]c4ccccc34)cc(-c3cccc4c3OCO4)nc12 [I-227, 5-(1,3-Benzodioxol-4-yl)-N-[2-(1H-indol-3-yl)ethyl]-3-isopropyl-pyrazolo[1,5-a]pyrimidin-7-amine]",< 500
3,"Cc1[nH]c2c(F)cccc2c1CCNc1nc(-c2cncc(F)c2)nc2c1ncn2C(C)C [I-71, N-[2-(7-Fluoro-2-methyl-1H-indol-3-yl)ethyl]-2-(5-fluoro-3-pyridyl)-9-isopropyl-purin-6-amine]",< 500
4,"Cc1cnn2c(-c3cncc(F)c3)cc(NCCc3c[nH]c4ccccc34)nc12 [I-124, 7-(5-Fluoro-3-pyridyl)-N-[2-(1H-indol-3-yl)ethyl]-3-methyl-pyrazolo[1,5-a] pyrimidin-5-amine]",> 1500
5,"CC(C)c1cnn2c(N[C@H]3Cc4ccc(O)cc4C3)cc(-c3cncc(C#N)c3)nc12 (single isomer, unassigned) [I-37a]",> 1500
6,"Cc1nn2c(NCCc3c[nH]c4ccccc34)cc(-c3cncc(F)c3)nc2c1C(C)C [I-83, 5-(5-Fluoro-3-pyridyl)-N-[2-(1H-indol-3-yl)ethyl]-3-isopropyl-2-methyl-pyrazolo[1,5-a]pyrimidin-7-amine]",< 500
7,Cc1cnn2c(NCCc3c[nH]cn3)cc(-c3cncc(F)c3)nc12 [I-207],> 1500
8,"Cc1nn2c(NCCc3c(C)[nH]c4c(F)cc(F)cc34)cc(-c3cncc(F)c3)nc2c1C(C)C [I-84, N-[2-(5,7-Difluoro-2-methyl-1H-indol-3-yl)ethyl]-5-(5-fluoro-3-pyridyl)-3-isopropyl-2-methyl-pyrazolo[1,5-a]pyrimidin-7-amine]",> 1500
9,"CON(C)C(=O)c1cnn2c(N[C@@H]3CCc4[nH]c5ccccc5c4C3)cc(-c3cncc(F)c3)nc12 [I-25, 5-(5-Fluoro-3-pyridyl)-N-methoxy-N-methyl-7-[[(3R)-2,3,4,9-tetrahydro-1H-carbazol-3-yl]amino]pyrazolo[1,5-a]pyrimidine-3-carboxamide]",> 1500
10,CNC(=O)c1cnn2c(NC3CCc4[nH]c5ccccc5c4C3)nc(-c3cncc(F)c3)nc12 (stereo not shown) [I-283],> 1500
11,Cc1cnn2c(NCC(C)(C)c3c[nH]c4ccccc34)cc(-c3cncc(F)c3)nc12 [I-170],> 1500
12,"Oc1ccc(CCNc2cc(-c3cncc(F)c3)nc3ccnn23)cc1 [I-49, 4-[2-[[5-(5-Fluoro-3-pyridyl)pyrazolo[1,5-a]pyrimidin-7-yl]amino]ethyl]phenol]",< 500
13,CC(C)c1cnn2c(NC3CCc4[nH]c5ccccc5c4C3)nc(-c3ccc(C(F)(F)F)nc3)nc12 (stereo not shown) [I-280],> 1500
14,"CC(C)c1cnn2c(N[C@H]3CCc4[nH]ncc4C3)cc(-c3cncc(F)c3)nc12 (single isomer, unassigned) [I-42a]",> 1500
15,Cc1cnn2c(N[C@@H](CO)Cc3c[nH]c4ccccc34)cc(-c3cncc(F)c3)nc12 [I-185],> 1500
16,"Fc1cncc(-c2cc(NCCc3c[nH]c4ccccc34)n3ncc(C4CC4)c3n2)c1 [I-86, 3-Cyclopropyl-5-(5-fluoro-3-pyridyl)-N-[2-(1H-indol-3-yl)ethyl]pyrazolo[1,5-a]pyrimidin-7-amine]",< 500
17,"Fc1cncc(-c2nc(N[C@@H]3CCc4[nH]c5ccccc5c4C3)c3nccn3n2)c1 [I-256, (3R)—N-[2-(5-fluoro-3-pyridyl)imidazo[2,1-f][1,2,4]triazin-4-yl]-2,3,4,9-tetrahydro-1H-carbazol-3-amine]",< 500
18,"CC(C)Oc1nc(NCCc2c[nH]c3ccccc23)cc(-c2cncc(F)c2)n1 [I-80, 6-(5-Fluoro-3-pyridyl)-N-[2-(1H-indol-3-yl)ethyl]-2-isopropoxy-pyrimidin-4-amine]",500 to 1000
19,"CN(C)c1cc(NCCc2c[nH]c3ccccc23)nc(-c2cncc(F)c2)n1 [I-63, 2-(5-Fluoro-3-pyridyl)-N6-[2-(1H-indol-3-yl)ethyl]-N4,N4-dimethyl-pyrimidine-4,6-diamine]",< 500

row,Compound,IC50 [nM]
1,O=C(NC1CC1)c1cnn2c(NC3CCc4[nH]c5ccccc5c4C3)nc(-c3cncc(F)c3)nc12 (stereo not shown) [I-285],> 1500
2,"Fc1cncc(-c2nc(N[C@@H]3CCc4[nH]ccc4C3)c3ncccc3n2)c1 [I-252b, 2-(5-Fluoro-3-pyridyl)-N-[(5R)-4,5,6,7-tetrahydro-1H-indol-5-yl]pyrido[3,2-d]pyrimidin-4-amine]",< 500
3,"CN(C)C(=O)c1cnn2c(NCCc3c[nH]c4ccccc34)cc(-c3cncc(F)c3)nc12 [I-56, 5-(5-Fluoro-3-pyridyl)-7-[2-(1H-indol-3-yl)ethylamino]-N,N-dimethyl-pyrazolo[1,5-a]pyrimidine-3-carboxamide]",< 500
4,CC(C)c1cnn2c(NC3CCc4[nH]c5c(F)cccc5c4C3)cc(-c3cncc(F)c3)nc12 (stereo not shown) [I-221],> 1500
5,CC(C)c1cnn2c(NC3CCc4[nH]c5ccccc5c4C3)nc(C3CCCCC3)nc12 (stereo not shown) [I-268],> 1500
6,Fc1cncc(-c2nc(NC3CCc4[nH]c5ccccc5c4C3)n3ncc(-c4cnc[nH]4)c3n2)c1 (stereo not shown) [I-274],< 500
7,"Fc1cncc(-c2cc(NCCc3c[nH]c4cccnc34)n3ncc(Br)c3n2)c1 [I-192, 3-Bromo-5-(5-fluoro-3-pyridyl)-N-[2-(1H-pyrrolo[3,2-b]pyridin-3-yl)ethyl]pyrazolo[1,5-a]pyrimidin-7-amine]",500 to 1000
8,Cc1cnn2c(N[C@H]3CCc4[nH]c5c(F)cc(F)cc5c4C3)cc(-c3cncc(F)c3)nc12 [I-243b],> 1500
9,CNC(=O)[C@@H](Cc1c[nH]c2ccccc12)Nc1cc(-c2cncc(F)c2)nc2c(C)cnn12 [I-189],> 1500
10,"CN(C)c1cnn2c(N[C@@H]3CCc4[nH]c5ccccc5c4C3)cc(-c3cncc(F)c3)nc12 [I-175, 5-(5-Fluoro-3-pyridyl)-N3,N3-dimethyl-N7-[(3R)-2,3,4,9-tetrahydro-1H-carbazol-3-yl]pyrazolo[1,5-a]pyrimidine-3,7-diamine]",> 1500
11,"CC(C)c1cnn2c(N[C@H]3Cc4ccc(O)cc4C3)cc(-c3cncc(F)c3)nc12 [I-220, (2S)-2-[[5-(5-fluoro-3-pyridyl)-3-isopropyl-pyrazolo[1,5-a]pyrimidin-7-yl]amino]indan-5-ol]",< 500
12,"Cc1cnn2c(NCCc3c[nH]c4c(O)cccc34)cc(-c3cncc(F)c3)nc12 [I-172, 3-[2-[[5-(5-Fluoro-3-pyridyl)-3-methyl-pyrazolo[1,5-a]pyrimidin-7-yl]amino]ethyl]-1H-indol-7-ol]",1000 to 1500
13,"CC(C)Oc1cc(NCCc2c[nH]c3ccccc23)nc(-c2cncc(C#N)c2)n1 [I-54, 5-[4-[2-(1H-indol-3-yl)ethylamino]-6-isopropoxy-pyrimidin-2-yl]pyridine-3-carbonitrile]",< 500
14,"CC(C)Oc1cc(-c2ccccc2)nc(NCCc2c[nH]c3ccccc23)n1 [I-155, N-(2-(1H-Indol-3-yl)ethyl)-4-isopropoxy-6-phenylpyrimidin-2-amine]",500 to 1000
15,O=C(O)c1cnn2c(NCCc3c[nH]c4c(O)cccc34)cc(-c3cncc(F)c3)nc12 [I-142],> 1500
16,CC(C)c1cnn2c(NCCc3c[nH]c(N)n3)nc(-c3cncc(F)c3)nc12 [I-266],> 1500
17,"Cc1cnn2c(NCCc3cc[nH]n3)cc(-c3cncc(F)c3)nc12 [I-180, 5-(5-Fluoro-3-pyridyl)-3-methyl-N-[2-(1H-pyrazol-3-yl)ethyl]pyrazolo[1,5-a]pyrimidin-7-amine]",500 to 1000
18,"CC(C)c1cnn2c(N[C@H]3CCc4[nH]c5c(F)cc(F)cc5c4C3)nc(-c3cncc(F)c3)nc12 [I-139a, (3S)-6,8-difluoro-N-[2-(5-fluoro-3-pyridyl)-8-isopropyl-pyrazolo[1,5-a][1,3,5]triazin-4-yl]-2,3,4,9-tetrahydro-1H-carbazol-3-amine]",< 500
